Values quoted from earlier work, collected in patent publication US7939518B2, “Method of treating post-surgical acute pain” (Aaipharma Inc., priority 2008, dated 2011).

Tested on: cyclo-oxygenase

O=C(O)Cc1ccccc1Nc1c(Cl)cccc1Cl [Diclofenac]
Concentrations at which cyclo-oxygenase is inhibited: micromolar concentrations
